Assay results published in patent publication US7329688B2, “Natural vitamin E compositions with superior antioxidant potency” (Soft Gel Technologies, Inc., priority 2002, dated 2008).

Assay: Oxygen radical absorbance capacity (ORACFL-LIPO) assay with fluorescein probe, RMCD, AAPH, Trolox standard
Conditions: for Antioxidant activity (ORAC), μmole Trolox equivalent per gram sample: 75 mM phosphate buffer pH 7.4, 7% RMCD; for Antioxidant activity (ORAC) per 400 IU: μmole TE/g × total weight in grams of formula which gives 400 IU
Procedure: The antioxidant activities of natural d-alpha-tocopherol, mixed tocopherols and tocotrienols, and formulations comprising all forms of vitamin E were determined employing an improved oxygen radical absorbance capacity (ORAC) assay using fluorescein (FL) as a fluorescent probe, randomly methylated β-cyclodextrin (RMCD) to enhance solubility of lipophilic antioxidants in aqueous medium, 2,2′-azobis (2-amidino-propane) dihydrochloride (AAPH) as peroxyl radical generator, and Trolox as a standard in 75 mM phosphate buffer.
(§1) The antioxidant activity, commonly referred to as oxygen radical absorbance capacity (ORAC), of a lipophilic substance was measured employing a newly developed assay. This assay is based on the use of: (a) fluorescein (FL) as the fluorescent probe, (b) randomly methylated β-cyclodextrin (RMCD) as a molecular host to enhance the solubility of lipophilic antioxidants in aqueous solution, (c) 2,2′-azobis (2-amidino-propane) dihydrochloride (AAPH) as a peroxyl radical generator, and (d) 6-hydroxy-2,5,7,8-tetramethyl-2-carboxylic acid (Trolox) as a standard in 75 mM phosphate buffer (pH 7.4).
The antioxidant activities of vitamin E formulations comprising all compounds of tocopherols and tocotrienols were determined employing an improved oxygen radical absorbance capacity (abbreviated ORACFL-LIPO) assay using fluorescein (FL) as the fluorescent probe, randomly methylated β-cyclodextrin (RMCD) as the water solubility enhancer for lipophilic antioxidants in 75 mM phosphate buffer (pH 7.4).
In the presence ofperoxyl radicals derived from AAPH, the indicator FL gradually loses its fluorescence. The antioxidant activity of a substance is measured by its ability to retain the fluorescence of FL in the presence of peroxyl radicals. The net protection of FL was measured as previously described by Ou et al.
All other standards were commercially available form Sigma or Aldrich. All ORAC analyses were performed on a COBAS FARA II analyzer (Roche Diagnostic System Inc., Branchburg, NJ) using an excitation wavelength of 493 nm and an emission filter of 515 nm.
Approximately 0.5 g of sample was dissolved in 20 mL of acetone. An aliquot of sample solution was appropriately diluted with 7% RMCD solvent (w/v) made in a 50% acetone-water mixture (v/v) and was shaken for 1 hr at room temperature on an orbital shaker at 400 rpm. The sample solution was ready for analysis after further dilution with 7% RMCD solvent.
The automated ORAC assay was carried out on a COBAS FARA II spectrofluorometer centrifugal analyzer as previously described (9). With the exception of samples and Trolox standards, which were made in 7% RMCD solvent, all other reagents were prepared at 75 mM phosphate buffer (pH 7.4). In the final assay mixture (0.4 mL total volume), FL (6.3×10^−8 M) was used as a target of free radical attack and AAPH (1.28×10^−2 M) was used as a peroxyl radical generator. 7% RMCD was used as the blank, and Trolox (12.5, 25,50, and 100 μM) was used as the control standard. The analyzer was programmed to record the fluorescence of FL every minute after the addition of AAPH. All measurements were expressed relative to the initial reading. Final results were calculated using the differences of areas under the FL decay curves between the blank and a sample.
as §1, with “6-hydroxy-2,5,7,8-tetrmethyl-2-carboxylic” for “6-hydroxy-2,5,7,8-tetramethyl-2-carboxylic”
In the presence of peroxyl radicals derived from AAPH, the indicator FL gradually loses its fluorescence. […]

| Compound | Antioxidant activity (ORAC), μmole Trolox equivalent per gram sample (Table 1) | Antioxidant activity (ORAC) in words, relative to d-alpha-tocopherol (qualitative statement) | Antioxidant activity (ORAC), μmole Trolox equivalent per gram sample (Table 1, listed as alpha-tocopherol (87%)) | Antioxidant activity (ORAC), μmole Trolox equivalent per gram sample (Table 1, listed as d-alpha-tocopherol (87%)) | Antioxidant activity (ORAC) per 400 IU (Table 1) [μmole TE/400IU] | Antioxidant activity (ORAC), μmole Trolox equivalent per gram sample (Table 2) | Antioxidant activity (ORAC) per 400 IU (Table 2) [μmole TE/400IU] |
| --- | --- | --- | --- | --- | --- | --- | --- |
| CC(=O)Oc1c(C)c(C)c2c(c1C)CCC(C)(CCC[C@H](C)CCC[C@H](C)CCCC(C)C)O2 (stereo partly drawn) [Alpha-Tocopherol Acetate] | 14 ± 10 μmole TE/g | no antioxidant activity |  |  |  |  |  |
| Cc1c(C)c2c(c(C)c1O)CC[C@@](C)(CCC[C@H](C)CCC[C@H](C)CCCC(C)C)O2 [d-alpha-Tocopheral (87%), d-alpha-tocopherol] | 1,293 ± 64 μmole TE/g |  | 1,293 μmole TE/g | 1,293 μmole TE/g | 398 | 1,293 ± 80 μmole TE/g | 413 |
